Values joined by “and” are separate entries in the source; they are usually repeats but may differ in a detail not shown here. Equal values may be shown once. *1 amine or outer side, *2 acyl side, *3 side chain or, on linkers, in order; H or OH if unused. Where no end group is shown, it is not given here. [ ]: non-standard residue; d: D form. Benzoyl(5-NH,2-NO2) = O=C(c1cc(N[*:1])ccc1[N+](=O)[O-])[*:2]; 2Abz = Nc1ccccc1C(=O)O
What was measured:
[1] = system: at least one enzyme of the studied material; experiment: Dependence of substrate hydrolysis on reaction pH; type: biochemical; conditions: FIG. 4
Protocol: Furthermore, measurements concerning the dependence of the proteolytic activity of the representative compound according to the invention on the reaction pH were performed.

[2] = system: urine taken from a person diagnosed with intestinal cancer; experiment: RP HPLC analysis of substrate cleavage in urine from a person with intestinal cancer; type: biochemical, human; conditions: randomly selected urine sample from a person diagnosed with intestinal cancer
[3] = system: proteolytic enzymes in urine from a subject suffering from intestinal cancer; experiment: Hydrolysis of the chromogenic substrate in urine from subjects with intestinal cancer (absorbance at 405 nm); type: biochemical, human; conditions: for absorbance: 405 nm, 60 minutes, 37° C., pH 8.0, triplicate
Protocol: The activity of the novel compounds according to the invention was studied in a group of 20 subjects diagnosed with intestinal cancer using the representative compound according to the invention. […] The remaining compounds according to the invention are characterized by the analogous mechanism of action. For this purpose, the representative compound according to the invention, ABZ^1-Asn^2-Phe^3-Ser^4-Pro^5-ANB^6—NH2, was dissolved in dimethyl sulfoxide (at a concentration of 0.5 mg/mL) and then 50 μL of the solution was mixed with 120 μL of a buffer (200 mM Tris-HCl, pH 8.0) and 80 μL of urine from a subject suffering from intestinal cancer. The measurement was performed on a 96-well plate designed for measuring absorbance and each sample was analysed in triplicate at the temperature of 37° C. The duration of the measurement was 60 minutes. During the measurement, the wavelength characteristic for the chromophore (ANB-NH2) being released was monitored at the wavelength 405 nm (range 380-430 nm).

[4] = system: urine samples taken from healthy persons; experiment: Hydrolysis of the chromogenic substrate in urine from healthy subjects (absorbance at 405 nm); type: biochemical, human; conditions: for absorbance: healthy subject, 405 nm, 60 minutes, 37° C., pH 8.0, triplicate

“ABZ-Asn-Phe-Ser-Pro-ANB-NH2 ([2Abz]NFSP-{Benzoyl(5-NH,2-NO2)-NH2}) [chromogenic/fluorogenic peptide substrate; ABZ is 2-aminobenzoic acid, ANB-NH2 is amide of 5-amino-2-nitrobenzoic acid]” was tested, and the “dependence of the proteolytic activity on the reaction pH” value [1] was “maximum activity at alkaline pH”, the “cleavage products by RP HPLC” value [2] was “cleaves into the peptide fragment ABZ-Asn-Phe-Ser-Pro-OH and the chromophore group of the compound (ANB-NH2)” and the “cleavage of the substrate” value ([3]; all samples 1-20 from persons suffering from intestinal cancer) was “underwent cleavage”. The absorbance ([3]; urine sample 3, intestinal cancer) was 0.035 and 0.034 and 0.036, the absorbance ([3]; urine sample 4, intestinal cancer) was 0.0314 and 0.0313 and 0.0385 and the absorbance ([3]; urine sample 7, intestinal cancer) was 0.041 and 0.039 and 0.04. For the same substance, the absorbance ([3]; urine sample 8, intestinal cancer) was 0.0257 and 0.0219 and 0.0258, the absorbance ([3]; urine sample 9, intestinal cancer) was 0.056 and 0.064 and 0.06 and the absorbance ([3]; urine sample 10, intestinal cancer) was 0.025 and 0.024 and 0.026. For the same substance, the absorbance ([3]; urine sample 11, intestinal cancer) was 0.015 and 0.016 and 0.027, the absorbance ([3]; urine sample 12, intestinal cancer) was 0.0916 and 0.0979 and 0.101 and the absorbance ([3]; urine sample 13, intestinal cancer) was 0.046 and 0.0337 and 0.0461. For the same substance, the absorbance ([3]; urine sample 14, intestinal cancer) was 0.025 and 0.018 and 0.0182, the absorbance ([3]; urine sample 15, intestinal cancer) was 0.031 and 0.028 and 0.02 and the absorbance ([3]; urine sample 16, intestinal cancer) was 0.0183 and 0.0293 and 0.0246. For the same substance, the absorbance ([3]; urine sample 17, intestinal cancer) was 0.073 and 0.07 and 0.046, the absorbance ([3]; urine sample 18, intestinal cancer) was 0.016 and 0.0186 and 0.0202 and the absorbance ([3]; urine sample 19, intestinal cancer) was 0.036 and 0.04 and 0.038. The absorbance ([4]; urine sample 1Z) was 0.00000, the absorbance ([4]; urine sample 2Z) was 0.00000 and the absorbance ([4]; urine sample 3Z) was 0.00000. For the same substance, the absorbance ([4]; urine sample 4Z) was 0.00000, the absorbance ([4]; urine sample 5Z) was 0.00000 and the absorbance ([4]; urine sample 6Z) was 0.00000. For the same substance, the absorbance ([4]; urine sample 7Z) was 0.00000, the absorbance ([4]; urine sample 8Z) was 0.00000 and the absorbance ([4]; urine sample 9Z) was 0.00000. The absorbance ([4]; urine sample 10Z) was 0.00000, the absorbance ([4]; urine sample 11Z) was 0.00000 and the absorbance ([4]; urine sample 12Z) was 0.00000. The absorbance ([4]; urine sample 13Z) was 0.00000, the absorbance ([4]; urine sample 14Z) was 0.00000 and the absorbance ([4]; urine sample 15Z) was 0.00000. The absorbance ([4]; urine sample 16Z) was 0.00000, the absorbance ([4]; urine sample 17Z) was 0.00000 and the absorbance ([4]; urine sample 18Z) was 0.00000. For the same substance, the absorbance ([4]; urine sample 19Z) was 0.00000, the absorbance ([4]; urine sample 20Z) was 0.00000 and the “increase in absorbance / hydrolysis of the tested compound” value ([4]; urine samples from healthy persons 1Z to 20Z) was “does not lead to an increase in absorbance”.
